Experimental data reported in patent publication US9695127B2, “Compounds for treating HIV and methods for using the compounds” (University of Pittsburgh—Of the Commonwealth System of …, priority 2012, dated 2017).

What was measured:
HIV-1 NL4-3 = test: HIV-1 infectivity in TZM-b1 reporter cells (luciferase); type: cell-based; conditions: for inhibition at 3 µM: Human immunodeficiency virus 1, NL43, TZM-b1, 48 h, read-out: INFECTIVITY @ 3 μM % Inhibition vs. DMSO control; for INFECTIVITY @ 3 μM % Inhibition vs. DMSO control: TZM-b1 reporter cells
Method: Compounds (1 μM) shown in FIG. 7 were added to cultures of U87MG and CEM-T4 cells in 96-well plates, followed by infection with wild-type HIV-1 NL4-3 (50 pg p24 equivalents/ml) 1 hour later. […] Virus replication was assessed by p24 ELISA after 4 days (U87MG) or 9 days (CEM-T4). Data are expressed as the mean percent inhibition as compared to control cultures incubated with the carrier solvent (DMSO)±S.E.M. (n=4). […] FIG. 9 concerns infectivity assays. Compounds (3 μM) were added to cultures of the reporter cell line TZM-b1 followed by infection with either wild-type or Nef-defective (ΔNef) HIV NL4-3 in 96-well plates. After 48 hours, relative virus infectivity was assessed as luciferase production in infected cells. […]
HIV assays: Viral stocks were prepared by transfection of 293T cells (ATCC) with wild-type and Nef-defective (ΔNef) proviral genomes (NL4—3 strain) and amplified in the T-cell line, MT2 (NIH AIDS Research and Reference Reagent Program). Viral replication was assessed in the U87MG astroglioma cell line engineered to express the HIV-1 co-receptors CD4 and CXCR4 or in the T-lymphoblast cell line, CEM-T4. […] Compounds were solubilized in DMSO, and added to the cell culture medium 1 h prior to infection with HIV. Viral replication was monitored for either 4 days (U87MG) or 9 days (CEM-T4) by measuring p24 Gag protein levels in the culture supernatant using standard ELISA-based techniques. HIV-1 infectivity was measured using the reporter cell line, TZM-b1 (NM AIDS Research and Reference Reagent Program). Cells were grown in 96-well plates (2.5×10^4) 8 h prior to virus infection to permit adherence. Compounds were pre-incubated with wild-type HIV-1 for 4 h prior to addition to the cells in a final volume of 200 μl. After 48 h at 37° C., the cells were washed with PBS and lysed in luciferase lysis buffer (Promega) by rocking for 15 min Lysates (40 μl) were transferred to white 96-well plates and 50 μl luciferase reagent (Promega) was injected into each well. Readings were recorded with a delay time of 2 sec and an integration period of 10 sec.

wild-type HIV-1 NL4-3 = test: HIV-1 replication in U87MG cells (p24 ELISA); type: cell-based; conditions: for inhibition at 3 µM: Human immunodeficiency virus 1, NL43, U-87 MG, 96 h, read-out: REPLICATION @ 3 μM % Inhibition vs. DMSO control; for REPLICATION @ 3 μM % Inhibition vs. DMSO control: U87MG cells
Source text: In particular disclosed embodiments, the compound may be used to block Nef-dependent HIV replication and infectivity. FIG. 7 illustrates the chemical structures of the compounds identified by the Nef:Hck HTS campaign and subsequently shown to block Nef-dependent enhancement of HIV-1 replication in two different cell lines are shown, along with the IC50 values for each compound against Hck alone vs. the Nef:Hck complex. FIG. 8 illustrates results concerning HIV replication. […] Viral output for the DMSO-treated control cultures was consistently greater than 100-fold over the HIV input, typically ranging from 9,000-12,000 p24 equivalents/ml. Virus replication was assessed by p24 ELISA after 4 days (U87MG) or 9 days (CEM-T4). Data are expressed as the mean percent inhibition as compared to control cultures incubated with the carrier solvent (DMSO)±S.E.M. (n=4). Results of replication and cytotoxicity experiments with all certain hit compounds from the primary screen are shown in FIG. 3 and FIG. 4. FIG. 9 concerns infectivity assays. Compounds (3 μM) were added to cultures of the reporter cell line TZM-b1 followed by infection with either wild-type or Nef-defective (ΔNef) HIV NL4-3 in 96-well plates. After 48 hours, relative virus infectivity was assessed as luciferase production in infected cells. Results are plotted as the mean percent of HIV-1 infectivity observed in control cells incubated with the carrier solvent DMSO±S.E.M. (n=3). In the absence of Nef, infectivity is reduced by about 50% (ΔNef; dashed line shown for reference).
HIV assays: Viral stocks were prepared by transfection of 293T cells (ATCC) with wild-type and Nef-defective (ΔNef) proviral genomes (NL4—3 strain) and amplified in the T-cell line, MT2 (NIH AIDS Research and Reference Reagent Program). Viral replication was assessed in the U87MG astroglioma cell line engineered to express the HIV-1 co-receptors CD4 and CXCR4 or in the T-lymphoblast cell line, CEM-T4. Both the U87 MG and CEM-T4 cell lines support HIV-1 replication in a Nef-dependent manner, and were obtained from the NM AIDS Research and Reference Reagent Program. Compounds were solubilized in DMSO, and added to the cell culture medium 1 h prior to infection with HIV. Viral replication was monitored for either 4 days (U87MG) or 9 days (CEM-T4) by measuring p24 Gag protein levels in the culture supernatant using standard ELISA-based techniques. HIV-1 infectivity was measured using the reporter cell line, TZM-b1 (NM AIDS Research and Reference Reagent Program). Cells were grown in 96-well plates (2.5×10^4) 8 h prior to virus infection to permit adherence. Compounds were pre-incubated with wild-type HIV-1 for 4 h prior to addition to the cells in a final volume of 200 μl. After 48 h at 37° C., the cells were washed with PBS and lysed in luciferase lysis buffer (Promega) by rocking for 15 min Lysates (40 μl) were transferred to white 96-well plates and 50 μl luciferase reagent (Promega) was injected into each well. Readings were recorded with a delay time of 2 sec and an integration period of 10 sec.

Structure (SMILES)	inhibition at 3 µM (HIV-1 NL4-3) [%]	also measured
N=C(N)n1nc(-c2ccc(F)cc2)c(Cc2cccc(Cl)c2)c1N [JV-2-19]	0	
N=C(N)n1nc(-c2ccc(F)cc2)c(Cc2cccc(Cl)c2)c1O [DD-1-21]	0	
COc1ccc(-c2nn(C(N)=S)c(O)c2CCc2ccc(F)cc2)cc1 [JV-1-94]		INFECTIVITY @ 3 μM % Inhibition vs. DMSO control (HIV-1 NL4-3): 0.0%
N=C(N)n1nc(-c2ccccc2)c(Cc2cccc(Cl)c2)c1N [JV-2-16]	0	
N=C(N)n1nc(-c2ccc(C(F)(F)F)cc2)c(Cc2cccc(Cl)c2)c1O [JV-2-9-1]	0	
Oc1c(Cc2ccc(F)cc2)c(-c2ccc(F)cc2)nn1-c1ccccn1 [JZ-1-178]	34.7	inhibition at 3 µM (wild-type HIV-1 NL4-3): 0%
COc1ccc(-c2n[nH]c(O)c2CCc2ccc(F)cc2)cc1 [JV-1-75-1]	0	
Oc1c(Cc2cccc(Cl)c2)c(-c2ccc(C(F)(F)F)cc2)nn1C1=NCCN1 [JV-2-14]	54.7	
NC(=S)n1nc(-c2ccc([N+](=O)[O-])cc2)c(/N=N/c2ccccc2Cl)c1O [KM-1-48]	19.3	
NC(=S)n1nc(-c2ccc([N+](=O)[O-])cc2)c(/N=N/c2ccc(Cl)cc2)c1O [KM-1-46]	37.2	inhibition at 3 µM (wild-type HIV-1 NL4-3): 43.6%
COc1ccc(-c2n[nH]c(O)c2CCc2cccc(Cl)c2)cc1 [JV-1-59-1]	0	inhibition at 3 µM (wild-type HIV-1 NL4-3): 30.1%
COc1ccc(-c2nn(-c3ccccc3)c(O)c2CCc2ccc(F)cc2)cc1 [JV-1-79]		REPLICATION @ 3 μM % Inhibition vs. DMSO control (wild-type HIV-1 NL4-3): Toxic; INFECTIVITY @ 3 μM % Inhibition vs. DMSO control (HIV-1 NL4-3): Toxic
Cc1nn(C(=N)N)c(O)c1CCc1ccc(F)cc1 [JV-1-87]		INFECTIVITY @ 3 μM % Inhibition vs. DMSO control (HIV-1 NL4-3): 0.0%
N=C(N)n1nc(-c2ccc(C(F)(F)F)cc2)c(Cc2ccc(F)cc2)c1O [JZ-1-177]	0	
COc1ccc(/N=N/c2c(-c3ccc([N+](=O)[O-])cc3)n[nH]c2O)cc1 [JZ-1-50]	28.9	
NC(=S)n1nc(-c2ccc([N+](=O)[O-])cc2)cc1O [JZ-1-94]	0	
N=C(N)n1nc(-c2ccccn2)c(CCc2cccc(Cl)c2)c1O [JZ-1-135-2]	0	REPLICATION @ 3 μM % Inhibition vs. DMSO control (wild-type HIV-1 NL4-3): Toxic
COc1ccc(-c2nn(-c3ccccc3)c(OC)c2/C=C/c2ccccc2)cc1 [JZ-1-145-1]	0	
N=C(N)n1nc(-c2ccc(F)cc2)c(Cc2ccc(F)cc2)c1O [JZ-1-175]	0	
COc1ccc(-c2nn(C(=N)N)c(O)c2CCc2ccc(F)cc2)cc1 [JV-1-74-1]	0	inhibition at 3 µM (wild-type HIV-1 NL4-3): 27.8%
COc1cccc(/N=N/c2c(-c3ccc([N+](=O)[O-])cc3)nn(C(N)=S)c2O)c1 [JZ-1-56]	0	
Oc1[nH]nc(-c2ccc(F)cc2)c1/N=N/c1cncc(Cl)c1 [JZ-1-110-2]	0	inhibition at 3 µM (wild-type HIV-1 NL4-3): 19.3%
NC(=S)n1nc(-c2ccc(C(F)(F)F)cc2)c(/N=N/c2cccc(Cl)c2)c1O [JZ-1-64]	26.5	
COc1ccccc1/N=N/c1c(-c2ccc([N+](=O)[O-])cc2)nn(C(N)=S)c1O [JZ-1-49]	0	
N=C(N)n1nc(-c2ccc([N+](=O)[O-])cc2)cc1O [JV-1-62-2-2]	0	
COc1ccc(-c2nn(-c3ccccc3)c(OC)c2/C=C/c2cccc(F)c2)cc1 [JZ-1-146-1]	0	

Structure (SMILES)	inhibition at 3 µM (HIV-1 NL4-3) [%]	also measured
Oc1[nH]nc(-c2ccccc2)c1/N=N/c1ccccc1 [JZ-1-58-2]	1.7	
Cc1c(Cc2cccc(Cl)c2)c(-c2ccccc2)nn1C(=N)N [DD-1-26]	0	
COc1ccc(-c2nn(-c3ccccn3)c(O)c2CCc2ccc(F)cc2)cc1 [JV-1-80]		REPLICATION @ 3 μM % Inhibition vs. DMSO control (wild-type HIV-1 NL4-3): Toxic; INFECTIVITY @ 3 μM % Inhibition vs. DMSO control (HIV-1 NL4-3): Toxic
Oc1c(Cc2ccc(F)cc2)c(-c2ccc(F)cc2)nn1C1=NCCN1 [JZ-1-176]	7.7	
O=[N+]([O-])c1ccc(-c2n[nH]c(O)c2Cc2ccc(F)cc2)cc1 [JV-2-13]	1.7	
COc1ccc(-c2nn(C(=N)N)c(O)c2Cc2cccc(Cl)c2)cc1 [DD-1-27]	0	
N=C(N)n1nc(-c2ccc([N+](=O)[O-])cc2)c(CCc2cccc(Cl)c2)c1O [JV-1-62-2-1]	0	inhibition at 3 µM (wild-type HIV-1 NL4-3): 53.2%
C(=C\c1c[nH]nc1-c1ccccc1)/c1ccccc1 [Vit-3f]	0	
N=C(N1CCOCC1)n1nc(-c2ccc(C(F)(F)F)cc2)c(Cc2ccc(F)cc2)c1O [JZ-1-180]	0	
NC(=O)n1nc(-c2ccc(F)cc2)c(/N=N/c2cccnc2)c1O [JZ-1-101]	0	inhibition at 3 µM (wild-type HIV-1 NL4-3): 0%
COc1ccc(-c2nn(C(=N)N)c(O)c2CCc2cccc(OC)c2)cc1 [JV-1-67-1]	0	
COc1cccc(Cc2c(-c3ccc(F)cc3)nn(C(=N)N)c2O)c1 [EAF-1-22]	0	
NC(=O)n1nc(-c2ccc(F)cc2)c(/N=N/c2cncc(Cl)c2)c1O [JZ-1-106]	3.5	inhibition at 3 µM (wild-type HIV-1 NL4-3): 0%
Oc1c(Cc2cccc(Cl)c2)c(-c2ccc(F)cc2)nn1C1=NCCN1 [DD-1-22]	0	
COc1cccc(Cc2c(-c3ccc([N+](=O)[O-])cc3)nn(C(=N)N)c2O)c1 [EAF-1-21]	0	
NC(=S)n1nc(-c2ccccc2)c(/N=N/c2ccccc2)c1O [JZ-1-58-3]	7.3	
O=[N+]([O-])c1ccc(-c2nn(C3=NCCN3)c(O)c2Cc2ccc(F)cc2)cc1 [JZ-1-171]	0	
NC(=S)n1nc(-c2ccc(C(F)(F)F)cc2)c(Cc2cccc(Cl)c2)c1O [JV-2-12]	41.7	
Nc1c(Cc2cccc(Cl)c2)c(-c2ccc(F)cc2)nn1C1=NCCN1 [DD-1-30]	0	
COc1ccc(-c2nn(C3=NCCN3)c(O)c2CCc2cccc(OC)c2)cc1 [JV-1-71-1]	25.2	
COc1ccc(-c2nn(C(=N)N3CCOCC3)c(O)c2CCc2ccc(F)cc2)cc1 [JZ-1-154-2-2]	0	
N=C(N)n1nc(-c2ccc([N+](=O)[O-])cc2)c(Cc2cccc(Cl)c2)c1O [JV-2-10]	3	
Oc1[nH]nc(-c2ccc(C(F)(F)F)cc2)c1Cc1ccc(F)cc1 [JZ-1-179-2]	0	
COc1ccc(-c2nn(C(N)=S)c(O)c2/N=N/c2cccc(Cl)c2)cc1 [JZ-1-62]	9.3	
COc1ccc(-c2nn(-c3ccccc3)c(OC)c2CCc2ccc(F)cc2)cc1 [JV-1-81]	19.7	
